Results taken from US10214507B2, “Carbazole-containing amides, carbamates, and ureas as cryptochrome modulators” (Reset Therapeutics, Inc., priority 2014, dated 2019).
Where two headings read alike, the source gives them in different places.

Experiments:
[1] = test system: cortisone-induced insulin resistance in Sprague Dawley rats; assay: Cortisone induced insulin resistance in rats; type: in vivo, rat; settings: cortisone 30 mg/kg sc + 50 mg/kg po
Description: Animals were dosed with cortisone (30 mg/kg sc qd) in combination with test compounds for 6 days and then terminated 27 hours after the final dose of cortisone. A reference standard (Mifepristone) was also included. Cortisone 21-acetate (Sigma C-3130) was supplied by RenaSci and administered using a dose volume of 5 ml/kg via the subcutaneous route as a fine suspension in 1% methylcellulose. […] Mifepristone (Sigma M8046) was provided by RenaSci.
Glucose and insulin determinations were performed on plasma samples obtained from a tail vein bleed taken after a 12 h fast, approximately 27 h after the last cortisone dose. Animals were then terminated and a terminal (cardiac) blood sample taken from which plasma was prepared.
Thirty four male Sprague Dawley rats (weight range 200-250 g) were ordered from Charles River, Margate, Kent, UK. […] Subsequently, animals underwent a 3 day baseline period during which they were dosed once daily with vehicle at t=0 h (07:00). […] Body weight was recorded immediately before dosing began at 07:00 (t=0 h).
On Day 6 of dosing rats were fasted for 12 h beginning at 22:30 (timed to coincide with the Day 7 termination). […] At 10:30 on Day 7, 27 h after the final dose of cortisone, a blood sample (300 μl) was taken from the lateral tail vein into tubes containing EDTA (Sarstedt 16.444). The blood was centrifuged and resultant plasma aliquot stored at −75° C. The animals were euthanized by CO2 asphyxiation followed by cervical dislocation. Terminal blood (approximately 10 ml) was collected by cardiac puncture into tubes containing EDTA (Sarstedt 5 ml 32.332) and then centrifuged and plasma stored at −75° C. The tail vein plasma was analyzed for glucose (n=2) using a commercial clinical reagent (Thermoelectron Infinity glucose reagent (TR15421) and for insulin (n=1) using the Mercodia ultrasensitive rat insulin rat ELISA (10-1251-10).
Plasma glucose and insulin were analyzed by robust regression or general linear model with treatment as a factor and bleeding order and baseline body weight as covariates. A log transformation was used if appropriate. Appropriate multiple comparison tests (two-tailed) were used to determine significant differences from the vehicle group and from the Cortisone group. P<0.05 was considered to be statistically significant.

C57/Bl6J DIO mice = assay: 7 day dosing in diet-induced obesity (DIO) mouse model; type: in vivo; settings: 100 mg/kg PO 7 days
Excerpt: Male C57/Bl6J DIO mice were obtained from The Jackson Laboratory (Sacramento, Calif.). […] Animals were accustomed to these conditions for at least 2 weeks before experimentation and used at approximately 24 weeks of age.
(§1) Significance was accepted when p<0.05.

[2] = Pharmacokinetic analysis in SD rats (plasma, LC/MS/MS); type: in vivo, rat; settings: 50 mg/kg P.O.; for Cmax: plasma, 50 mg/kg
Description: Male SD rats (weighing 250-300 g, Charles River Laboratories) were used for the experiment with n=4 rats for each experimental group. […] Blood was collected at the following time points after administration: 15, 30, 60, 90 minutes, 3, 6, 12 and 24 hours. A pre-dose sample was also collected. Animals were cannulated by technical staff at Charles River, prior to delivery at Reset. Whole blood (0.3 ml) was collected from a cannula in the right common jugular vein at each time-point. The whole blood was transferred to an EDTA tube, and then centrifuged at 5400 rpm for 5 minutes at 4° C. The resultant plasma was frozen using dry ice and then stored at −80° C. until ready for assay. 0.9% Sodium Chloride (0.3 ml) was administered for fluid replenishment after each blood draw. 0.1 ml of Sodium Heparin (500 IU/ml) was used as a lock solution after the 12 hr time-point. Samples were assayed as described above.

[3] = 7 day dosing, glucose metabolism, insulin and compound levels in db/db mice; type: in vivo, mouse; settings: male, mouse, around 8 hours after last dose, 50 mg/kg PO 7 days
Excerpt: as §1

[4] = test system: db/db mouse model of type II diabetes; assay: as above; type: in vivo; settings: 50 mg/kg PO 7 days
Excerpt: as §1

[5] = Increasing dosages of Compound 72 for 7 days in db/db mice; type: in vivo, mouse; settings: male, mouse, oral, around 8 hours after last dose
Excerpt: as §1

[6] = test system: db/db mouse model of type II diabetes; assay: as above; type: in vivo
Excerpt: as §1

Tmax ([2]; male, SD, po, rat plasma): 1.7 h
half-life ([2]; male, SD, po, rat plasma, read-out: Elimination T1/2 (converted)): 1.87 h
MRT last ([2]; male, SD, po, rat plasma, read-out: MRT (0-last, hr)): 4.94 h
Cmax ([2]; male, SD, rat, po, rat plasma, read-out: Cmax): 7100 ng/mL
Cmax ([2]; male, SD, rat, po, rat, read-out: Cmax (plasma)): 7100 ng/mL
Cmax ([2]; male, SD, rat, po, rat, unbound, read-out: Cmax UB (plasma)): 277 ng/mL
% AUC extrapolated ([2]; rat plasma): 3.3%
AUC (total; ng · hr/mL) ([2]; rat plasma): 57952 ng·h/mL
Unbound Plasma AUC (0-last) ([2]; rat): 2259
concentration at 8 h ([3]; liver, read-out: compound level in liver): 670 nM
concentration at 8 h ([3]; plasma, read-out: compound level in plasma): 530 nM
concentration at 8 h ([5]; liver, 10 mg/kg, read-out: compound level in liver): 120 nM
concentration at 8 h ([5]; liver, 50 mg/kg, read-out: compound level in liver): 780 nM
concentration at 8 h ([5]; liver, 100 mg/kg, read-out: compound level in liver): 1810 nM
concentration at 8 h ([5]; plasma, 10 mg/kg, read-out: compound level in plasma): 90 nM
concentration at 8 h ([5]; plasma, 50 mg/kg, read-out: compound level in plasma): 570 nM
concentration at 8 h ([5]; plasma, 100 mg/kg, read-out: compound level in plasma): 1220 nM
Compound: O=C1NCCN1CC(O)Cn1c2ccc(F)cc2c2cc(F)ccc21 (centres unmarked) [Compound 72, 1-(3-(3,6-difluoro-9H-carbazol-9-yl)-2-hydroxypropyl)imidazolidin-2-one]
HOMA-IR ([1]; insulin resistant rats): 56.94+/−11.18 units
fasted plasma glucose ([1]; rats): 8.55 ± 0.3 mM
fasted plasma insulin ([1]; rats): 5.24 ± 1.1 ng/mL
HOMA-IR (C57/Bl6J DIO mice): 32.54+/−3.37 units
fasting blood glucose (C57/Bl6J DIO mice): 177.1 ± 8.28 mg/dL
glucose AUC calculated from the OGTT (C57/Bl6J DIO mice): 17055+/−769.1
plasma insulin at t=0 (C57/Bl6J DIO mice): 3.12 ± 0.24 ng/mL
plasma insulin at t=2 hr (C57/Bl6J DIO mice): 2.88 ± 0.21 ng/mL
HOMA-IR [4]: 93.69+/−23.60 units
fasting blood glucose (FBG) [4]: 385.0 ± 29.69 mg/dL
glucose AUC calculated from the OGTT [4]: 35942+/−3192
plasma insulin at t=0 [4]: 3.78 ± 0.69 ng/mL
plasma insulin at t=2 hr ([4]; after glucose load): 2.53 ± 0.50 ng/mL
reduction of HOMA-IR ([4]; vs vehicle): 33%
reduction of insulin at t=0 ([4]; vs vehicle): 20%
reduction of insulin at t=2 hr ([4]; vs vehicle): 21%
HOMA-IR ([6]; 10 mg/kg QD PO 7 days): 172.7+/−16.61 units
fasting blood glucose ([6]; 10 mg/kg QD PO 7 days): 503.5 ± 49.68 mg/dL
glucose AUC from OGTT ([6]; 10 mg/kg QD PO 7 days): 39771+/−4244
HOMA-IR ([6]; 50 mg/kg QD PO 7 days): 149.2+/−16.49 units
fasting blood glucose ([6]; 50 mg/kg QD PO 7 days): 402.8 ± 25.25 mg/dL
glucose AUC from OGTT ([6]; 50 mg/kg QD PO 7 days): 35527+/−3215
HOMA-IR ([6]; 100 mg/kg QD PO 7 days): 111.9+/−9.02 units
fasting blood glucose ([6]; 100 mg/kg QD PO 7 days): 420.7 ± 26.44 mg/dL
glucose AUC from OGTT ([6]; 100 mg/kg QD PO 7 days): 28499+/−3079
plasma insulin at t=0 ([6]; 100 mg/kg QD PO 7 days): 4.63 ± 0.17 ng/mL
reduction of HOMA-IR compared to vehicle control ([6]; 100 mg/kg QD PO 7 days): 34%
